For ten compounds, TGI results are on record in PubChem BioAssay (NCI).

Among the test systems are 786-0 renal; HCC-2998 colon; IGROV1 ovarian; K-562 leukemia; MALME-3M melanoma; MCF7 breast; NCI-H226 lung; NCI-H460 lung; OVCAR-8 ovarian; SF-268 CNS; SK-MEL-28 melanoma; SN12C renal; SW-620 colon; U251 CNS.
What all share (assay): NCI-60 cell line screen, 48 h

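Following 48 hours of exposure in 96-well plates, responses at five concentrations were used to interpolate endpoints linearly. The concentration for full growth arrest is given as TGI.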

`O=C1CC2(CCNCC2)C(=O)N1N1CCCCC1`: the TGI with 786-0 renal, in the assay on HCC-2998 colon, with IGROV1 ovarian, with K-562 leukemia, with MALME-3M melanoma and in the assay with MCF7 breast was > 100 µM throughout. The TGI with NCI-H226 lung, in the assay with NCI-H460 lung, with OVCAR-8 ovarian, in the assay with SF-268 CNS, in the assay on SK-MEL-28 melanoma and in the assay with SN12C renal was > 100 µM throughout. Moreover, the TGI in the assay on SW-620 colon and in the assay on U251 CNS was > 100 µM throughout.
For `CC(C)(C)CN1[C@@H]2CCCC[C@H]2N(CC(C)(C)C)P1(=O)C(O)/C=C/c1ccccc1` (stereo not given in full), the TGI was > 100 µM in the assay on 786-0 renal; 92.6 µM with HCC-2998 colon; > 100 µM in the assay with IGROV1 ovarian; > 100 µM in the assay on K-562 leukemia; 87.7 µM in the assay with MALME-3M melanoma; > 100 µM with MCF7 breast. The TGI in the assay on NCI-H226 lung was 91.6 µM; with NCI-H460 lung, 85.3 µM; in the assay on OVCAR-8 ovarian, > 100 µM; in the assay on SF-268 CNS, > 100 µM; in the assay on SK-MEL-28 melanoma it was > 100 µM; in the assay with SN12C renal, 57.5 µM. Further, the TGI in the assay on SW-620 colon and with U251 CNS was > 100 µM each time.
Regarding `COC(=O)/C=C/c1ccc2c(c1)[C@H](C(=O)OC)[C@@H](c1ccc(O)cc1)O2`, the TGI in the assay with 786-0 renal was > 100 µM; with HCC-2998 colon, 59.4 µM; in the assay with IGROV1 ovarian it was > 100 µM; in the assay with K-562 leukemia it was > 100 µM; with MALME-3M melanoma, 80.6 µM; in the assay with MCF7 breast it was 48.6 µM. The TGI in the assay on NCI-H226 lung was > 100 µM; in the assay with NCI-H460 lung it was > 100 µM; in the assay with OVCAR-8 ovarian, > 100 µM; in the assay with SF-268 CNS, 83.8 µM; with SK-MEL-28 melanoma it was > 100 µM; in the assay with SN12C renal it was > 100 µM. The TGI in the assay with SW-620 colon and with U251 CNS was > 100 µM throughout.
Take `COc1cccc(N2C(=O)C3c4[nH]c5ccc(C)cc5c4C4CCC(C)CC4C3C2=O)c1` (stereo not given): the TGI in the assay with 786-0 renal, with HCC-2998 colon, in the assay on IGROV1 ovarian, with K-562 leukemia, in the assay with MALME-3M melanoma and in the assay with MCF7 breast was > 100 µM each time. Also, the TGI in the assay with NCI-H226 lung, with NCI-H460 lung, in the assay on OVCAR-8 ovarian, in the assay on SF-268 CNS, in the assay with SK-MEL-28 melanoma and in the assay on SN12C renal was > 100 µM each time. Besides, the TGI in the assay on SW-620 colon and in the assay with U251 CNS was > 100 µM in each case.
As to `Oc1ccccc1-c1n[nH]c(-c2ccccc2O)n1`, the TGI in the assay on 786-0 renal was > 100 µM; in the assay with HCC-2998 colon, > 96.7 µM; in the assay with IGROV1 ovarian it was > 100 µM; in the assay with K-562 leukemia, > 100 µM; in the assay with MALME-3M melanoma it was > 100 µM; in the assay on MCF7 breast, > 100 µM. Moreover, the TGI in the assay on NCI-H226 lung, in the assay on NCI-H460 lung, with OVCAR-8 ovarian, in the assay on SF-268 CNS, with SK-MEL-28 melanoma and with SN12C renal was > 100 µM in each case. The TGI in the assay on SW-620 colon and in the assay with U251 CNS was > 100 µM in each case.
Consider `O=C(/N=C1/OC(CN2CCOCC2)CN1C(=O)Nc1ccccc1)Nc1ccccc1` (stereo not given), for which the TGI in the assay with 786-0 renal, in the assay on HCC-2998 colon, with IGROV1 ovarian, in the assay with K-562 leukemia, with MALME-3M melanoma and with MCF7 breast was > 100 µM in each case. For the same compound, the TGI in the assay on NCI-H226 lung, in the assay on NCI-H460 lung, in the assay on OVCAR-8 ovarian, in the assay with SF-268 CNS, in the assay on SK-MEL-28 melanoma and with SN12C renal was > 100 µM each time. The TGI in the assay with SW-620 colon and with U251 CNS was > 100 µM each time.
As to `O=[N+]([O-])c1cc2ccc1OCc1cccc(n1)COc1ccc(cc1[N+](=O)[O-])C=NCCCCCCCCN=C2`, the TGI in the assay on 786-0 renal, with HCC-2998 colon, with IGROV1 ovarian, in the assay with K-562 leukemia, with MALME-3M melanoma and in the assay with MCF7 breast was > 100 µM throughout. Also, the TGI in the assay with NCI-H226 lung, with NCI-H460 lung, in the assay on OVCAR-8 ovarian, with SF-268 CNS, in the assay on SK-MEL-28 melanoma and with SN12C renal was > 100 µM each time. The TGI in the assay on SW-620 colon and in the assay on U251 CNS was > 100 µM in each case.
For `COC(=O)/C=C/C(=O)Nc1cc(Cl)c(Cl)cc1CC(=O)N(C)[C@H]1CCCC[C@@H]1N1CCCC1`, the TGI in the assay with 786-0 renal is 22.1 µM; with HCC-2998 colon it was 21.2 µM; in the assay on IGROV1 ovarian, 22 µM; with K-562 leukemia it was > 33.5 µM; in the assay with MALME-3M melanoma, 20.5 µM; in the assay on MCF7 breast it was 13.6 µM. The TGI in the assay with NCI-H226 lung turned out to be 31.7 µM; with NCI-H460 lung it was 31.9 µM; in the assay with OVCAR-8 ovarian, 16.3 µM; in the assay on SF-268 CNS, 35.5 µM; with SK-MEL-28 melanoma, 33.7 µM; in the assay with SN12C renal, 25.1 µM. Moreover, the TGI in the assay on SW-620 colon turned out to be 26.7 µM; with U251 CNS it was 31.6 µM.
Regarding `Cc1ccc(C2=Nn3c(nc4sc5c(c4c3=O)CCCC5)SC2)cc1`, the TGI in the assay on 786-0 renal, with HCC-2998 colon, with IGROV1 ovarian, in the assay with K-562 leukemia, with MALME-3M melanoma and with MCF7 breast was > 100 µM each time. For the same compound, the TGI with NCI-H226 lung, with NCI-H460 lung, in the assay with OVCAR-8 ovarian, in the assay with SF-268 CNS, in the assay on SK-MEL-28 melanoma and in the assay on SN12C renal was > 100 µM throughout. The TGI in the assay on SW-620 colon and in the assay with U251 CNS was > 100 µM throughout.
Consider `COc1ccc(C(c2cc(OC)c(OC)c(OC)c2)N2C(=O)CCC2C(=O)O)cc1` (stereo not given), for which the TGI in the assay with 786-0 renal, with HCC-2998 colon, in the assay on IGROV1 ovarian, in the assay on K-562 leukemia, in the assay with MALME-3M melanoma and with MCF7 breast was > 100 µM in each case. Further, the TGI with NCI-H226 lung, in the assay on NCI-H460 lung, with OVCAR-8 ovarian, in the assay on SF-268 CNS, in the assay on SK-MEL-28 melanoma and in the assay with SN12C renal was > 100 µM throughout. Besides, the TGI in the assay with SW-620 colon and in the assay with U251 CNS was > 100 µM in each case.
